Source: US20020018748A1, “Method for targeted radiotherapy, pain palliation and imaging of osteoblastic skeletal tumors and composition therefore” (priority 2000, published 2002)
Values joined by “and” are separate entries in the source; they are usually repeats but may differ in a detail not shown here. Equal entries are not always repeated.

Assays:
[1] = intravenous single injection; reduced by slow administration over at least two minutes; cited from earlier work
bone marrow = details: repeat doses at 3-month intervals; cited from earlier work
metastases = details: in vivo; cited from earlier work
bone metastases = test: Theoretical (calculated) distribution of ^89Sr chloride doses in the metastases, from the ^85Sr chloride uptake; format: in vivo, patient; details: for total amount of strontium incorporated by all metastases: 4 mCi dose
Procedure: The fractional uptake (%) of a standard dose ^89Sr chloride for pain palliation in bone metastasis [4 mCi (148 MBq)] with specific activity of 120 μCi (4.44 MBq)/mg of strontium) (B) is calculated from the fractional uptake (%) of 1 mCi of ^85Sr chloride at the same specific activity (A) is illustrated in Table II.
The fractional uptake (%) of a standard dose of 4.0 mCi (148 MBq) of ^89Sr chloride at the standard specific activity is calculated for each metastasis from the results obtained with ^85Sr chloride. Since the specific activity is the same for both radionuclides, the fractional uptake would be similar if the same physiological conditions are maintained. However, the activity (μCi) and the amount of strontium (mg) incorporated by the metastases would be increased by four times because the activity of the administered dose is increased from 1 mCi to 4 mCi. Theoretically, the fractional uptake of a standard dose of ^89Sr chloride by the metastatic burden would be 41.0% of the dose (1.64 mCi or 60.7 MBq), leaving in blood a remaining fraction of 59% of the dose (2.36 mCi or 87.3 MBq) available for renal excretion and for incorporation by normal bone.
The absolute amount of strontium (mg) incorporated by each lesion can be calculated by multiplying the activity of the administered dose (mCi or MBq) by the fractional uptake by a given metastasis (% of the dose), and dividing the result by the specific activity of the dose (mCi or MBq/mg of strontium):
Strontium (mg)=Activity of the dose (mCi) × fractional uptake (%)/specific activity (mCi/mg Sr)
In Table II it is also appreciated that the fractional uptake is the same for both the activity (μCi) and the absolute amount (mg) of strontium incorporated by the metastases. One mg of strontium corresponds to 3% of the element in the dose. One hundred and twenty μCi of ^89Sr correspond to […] of the activity in the dose. One mCi of strontium chloride with specific activity of 120 μCi/mg of strontium contains 8.333 mg of strontium (Table I), therefore, 4 mCi would contain 33.333 mg of the element. A fractional uptake of 41.0% corresponds to 410 μCi and 3.416 mg when using 1 mCi, and to 1.64 mCi and 13.667 mg when the dose is increased to 4 mCi (Table II). The amount of strontium (mg) taken up by the metastasis per unit time should be constant if the physiological parameters are maintained. Dose calculation may be guided by the relationship of the amount of strontium in carrier-free ^89Sr chloride ([…]) and that which is in an equal amount of its low specific activity counterpart (120 μCi/mg of Sr). The amount of strontium in 4 mCi of low specific activity ^89Sr chloride (120 μCi/mg of Sr), is 33.333 mg, while in carrier-free ^89Sr chloride (17 Ci/mg of Sr) it is reduced to 235.2 ng. The relationship between these quantities would be:
Theoretical distribution of ^89Sr chloride at different specific activities assuming the same fractional uptake (% of the dose) by the metastases. (A) ^89Sr chloride with low specific activity [120 μCi (4.44 MBq)/mg of strontium]; (B) carrier-free ^89Sr chloride [17 Ci (629 GBq)/mg of strontium] is illustrated in Table III.
If the “metastatic burden” takes up 41% of a 4mCi dose of the low specific activity ^89Sr chloride (13.664 mg of strontium) (Tables II and III), it is evident that the very small amount of strontium in the carrier-free ^89Sr chloride dose (235.2 ng) would be totally incorporated by the metastases, resulting in a fractional uptake of 100% y the metastatic burden. To correct for this effect, the data in Table IlI should be multiplied by the ratio between 100% uptake and the fractional uptake by the metastatic burden by using 89Sr chloride at the lower specific activity. In this case, the ratio is 100%/41%=2.439. […]

[2] = test system: metastatic lesions in bone; test: Absorbed radiation dose estimates by direct measurements of radioactivity in bone metastases; format: in vivo; details: after 4 mCi (148 MBq), 120 μCi/mg of strontium
From the text: Absorbed radiation dose estimates for metastatic lesions in bone, obtained by direct measurements of radioactivity in bone metastases after the administration of 4 mCi (148 MBq) of ^89Sr chloride at standard specific activity (120 μCi [4.44 MBq]/mg of strontium), varied from 1.3 to 64 Gy, with a mean of 18±16 Gy. The average total absorbed dose in normal bone sites was 1.1±0.4 Gy. The metastases (target) to normal bone (non-target) dose ratio in individual samples varied from 8±4 to 40±25. If compared to absorbed radiation dose provided by external beam radiotherapy, the absorbed radiation dose delivered by ^89Sr chloride should be large enough to produce a therapeutic effect on the metastases. But absorbed radiation doses delivered by ^89Sr chloride may not be compared with those delivered by external beam radiotherapy because the different dose rates used in each methodology. External beam radiotherapy delivers very high dose rates in a very short time, while ^89Sr chloride provides very low dose rates during a long period. These differences reduce the biological effect of a given dose of ^89Sr because there is repair of sublethal damage.

painful bone metastases = details: cited from earlier work
[3] = test system: bone metastases from prostate cancer; test: Fractional uptake of a tracer dose of ^85Sr chloride by bone metastases, measured with gamma camera / external counting; format: in vivo, patient
Procedure: To calculate the activity (mCi or MBq) of the dose of a carrier-free salt of ^89Sr, preferably chloride, to be administered to palliate painful metastases in a patient, 1 mCi (37 MBq) of ^85Sr chloride with standard specific activity [120 μCi (4.44 MBq)/mg of strontium) is injected into the patient and radioactivity in each metastasis is measured 24 hours after injection. The fractional uptake in each metastasis (relative osteoblastic activity) is calculated by expressing the radioactivity measured in each metastasis as a percent of the administered dose. The sum of the fractional uptake in all metastases is taken as the “metastatic burden” of the patient.
Measurements of radioactivity can be guided by a recent bone scan with ^99Tc^m-MDP (methylene diphosphonate). These measurements can be made by external point counting with a collimated scintillation detector, or by using a gamma camera. […]
The gamma camera needs to be equipped with a high-energy collimator. Anterior and posterior images of the lesions are recorded for 15 minutes. […]
The count rate in each metastasis is calculated by the square root of the product of the count rates in the anterior (A) and posterior (P) images divided by e^−μd: [(cps A) ×(cps P)/(e^−μd)]. The exponential term accounts for the attenuation of the gamma photons by the patient's tissues, where μ is the attenuation coefficient for the gamma rays of ^85Sr, previously measured in a water phantom, and d is the patent thickness measured in cm from x-ray images. The attenuation coefficient needs to be experimentally estimated only once; sensitivity should be measured using an ^85Sr source in a soft-tissue phantom before each imaging session because it varies with time. […]
The sum of the fractional uptake of ^85Sr chloride by all detectable metastases (“metastatic burden”), is used to define the activity (mCi or MBq) of ^89Sr chloride needed to palliate painful metastases in a patient. […] The fractional uptake measured in these metastases was 3%, 4%, 7%, 10%, and 17% of the dose respectively, with a total “metastatic burden” of 41% (3+4+7+10+17=41) (Table II). […]

[4] = standard dose 4 mCi (148 MBq), 120 μCi/mg of strontium, theoretical
[5] = standard dose 4 mCi, 120 μCi/mg of strontium, theoretical
[6] = carrier-free, 1.64 mCi dose, theoretical

SMILES: [89Sr+2].[Cl-].[Cl-] [^89Sr Chloride (120 μCi/mg Sr), ^89Sr chloride]
- effect during the injection [1]: facial flushing during the injection
- toxicity of additional injections (bone marrow): no major toxicity
- ratio of the uptake by metastases as compared to the uptake in normal bones (metastases): higher than 10 to 1
- total amount of strontium incorporated by all metastases (bone metastases; 120 μCi/mg of strontium, theoretical): 13.664 mg
- total amount of strontium incorporated by all metastases (bone metastases; 120 μCi/mg of strontium, theoretical, listed as low specific activity ^89Sr chloride): 13.664 mg
- total amount of strontium incorporated by all metastases (bone metastases; 120 μCi/mg of strontium, theoretical, listed as low specific activity ^89Sr chloride (120 μCi/mg of Sr)): 13.667 mg
- mean fractional uptake (bone metastases; over the five metastases of Table II): 8.2%
- activity taken up by the metastatic burden (bone metastases; [4]): 1.64 mCi
- fractional uptake by the metastatic burden (bone metastases; [4]): 41 % of the dose
- fractional uptake by the metastatic burden (bone metastases; standard dose 4 mCi (148 MBq), 120 μCi/mg of strontium, theoretical, listed as low specific activity ^89Sr chloride): 41 % of the dose
- activity remaining in blood, available for renal excretion and incorporation by normal bone (bone metastases; [5]): 2.36 mCi
- fraction remaining in blood, available for renal excretion and incorporation by normal bone (bone metastases; [5]): 59 % of the dose
- absorbed radiation dose for metastatic lesions in bone, mean [2]: 18±16 Gy
- average total absorbed dose in normal bone sites [2]: 1.1±0.4 Gy
- metastases (target) to normal bone (non-target) dose ratio in individual samples [2]: 8-40
- duration of response, mean (painful bone metastases; after ^89Sr administration): 6 months
- overall effective pain palliation (painful bone metastases; survey in the United States in 1995, patients treated with bone-seeking radionuclides): 81%
- patients achieving a complete remission of pain (painful bone metastases; survey in the United States in 1995): 15%

SMILES: [89Sr+2].[Cl-].[Cl-] [^89Sr Chloride (17 Ci/mg Sr), ^89Sr chloride]
- fractional uptake by the metastases relative to the same activity at standard specific activity (bone metastases; 4 mCi (148 MBq) carrier-free vs 120 μCi/mg, ratio 100%/41%): 2.439 times
- activity incorporated by individual metastases (bone metastases; carrier-free, 1.64 mCi (60.68 MBq) dose, metastasis No. 4, No. 5, No. 1, No. 2, No. 3, respectively, listed as carrier-free ^89Sr chloride): 400 μCi and 680 μCi and 120 μCi and 160 μCi and 280 μCi
- ratio metastases to normal bone, theoretical values (bone metastases; carrier-free, 1.64 mCi dose, measured ratio multiplied by 2.439): 20-98
- absolute amount of strontium taken up by the metastases (bone metastases; [6]): 96.422 ng
- fractional uptake by the metastatic burden (bone metastases; [6]): 100%
- fractional uptake by the metastatic burden (bone metastases; carrier-free, 4 mCi dose (235.2 ng strontium), theoretical): 100%
- activity received by individual metastases (bone metastases; carrier-free, 4.1 mCi dose, metastasis 1-5 respectively, listed as carrier-free ^89Sr chloride): 300 μCi and 400 μCi and 700 μCi and 1,000 μCi and 1,700 μCi
- mean absorbed radiation dose to the metastases (bone metastases; carrier-free, 5.466 mCi (202.2 MBq) dose, calculated): 60 Gy

SMILES: [85Sr+2].[Cl-].[Cl-] [^85Sr Chloride (120 μCi/mg Sr), ^85Sr chloride]
- Uptake (%) ([3]; 1 mCi dose, 120 μCi/mg Sr, 24 hours after injection, r8-r12 = metastasis 1-5, r13 = Total, one patient): 7.0% and 10.0% and 17.0% and 41.0% and 3.0% and 4.0%
- fractional uptake measured in these metastases ([3]; 1 mCi, 120 μCi/mg of strontium, five metastases of one patient with prostate cancer, values respectively): 3 % of the dose and 4 % of the dose and 7 % of the dose and 10 % of the dose and 17 % of the dose
- total "metastatic burden" (sum of fractional uptake in all metastases) ([3]; 1 mCi, 120 μCi/mg of strontium, one patient, five metastases): 41%
